Results taken from patent US6762052B1, “DNA sequence encoding flavin-containing monooxygenase” (priority 1993, dated 2004).
Positions count from the first letter of the chain named. Read-outs that look alike come from different tables or passages of the source.

Assays:
[1] = target: T1, adult human liver flavin-containing monooxygenase (form 3) (Homo sapiens, UniProt P31513, E158K); assay: N- and S-oxygenation by cDNA-expressed HLFMO 3 (solubilized protein from E. coli transformed with pTrcHLFMO 3), HPLC; conditions: for Vmax, Expressed HLFMO / Km: N- or S-oxide formation, for the 4-bromophenyl-1,3-oxathiolanes formation of the trans S-oxide; for Km: read-out: Km, Expressed HLFMO
T1 sequence (P31513 1-532 E158K): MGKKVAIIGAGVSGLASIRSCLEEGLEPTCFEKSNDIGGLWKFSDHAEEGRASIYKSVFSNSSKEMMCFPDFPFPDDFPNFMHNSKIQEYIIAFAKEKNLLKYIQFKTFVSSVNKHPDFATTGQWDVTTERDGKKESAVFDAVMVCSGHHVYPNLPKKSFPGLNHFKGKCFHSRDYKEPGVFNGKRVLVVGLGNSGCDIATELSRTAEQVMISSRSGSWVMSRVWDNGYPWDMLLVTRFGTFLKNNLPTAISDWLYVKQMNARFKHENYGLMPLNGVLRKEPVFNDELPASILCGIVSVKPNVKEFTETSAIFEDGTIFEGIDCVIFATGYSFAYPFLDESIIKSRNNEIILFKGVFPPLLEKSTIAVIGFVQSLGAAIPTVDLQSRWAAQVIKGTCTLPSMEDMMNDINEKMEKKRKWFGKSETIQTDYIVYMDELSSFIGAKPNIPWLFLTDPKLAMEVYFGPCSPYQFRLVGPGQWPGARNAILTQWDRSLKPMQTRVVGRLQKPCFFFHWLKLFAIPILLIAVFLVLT
Procedure: (§1) In all cases examined, product formation was directly determined by HPLC analysis of organic extracts.
Competent NM522 Escherichia coli cells were transformed with the pTrc HLFMO 3 plasmid. […] After inoculation with a fresh overnight culture of NM522 containing pTrcHLFMO 3, the culture was grown at 37° C. until Abs600 was approximately 0.5 absorbance units. Finally, IPTG (0.8 mM) was added to the culture to induce expression of protein and the culture was left to grow overnight at 37° C.
The bacterial pellet was resuspended in 5 volumes of 50 mM potassium phosphate buffer (pH 8.4) containing 1% Triton X-100, 0.1% L-, α-phosphatidylcholine (L-α-lecithin) from egg yolk, 500 μM PMSF, and 1 mM EDTA. The mixture was sonicated and then centrifuged to remove cellular debris. As a control, bacterial lysate extracts from IPTG-induced pTrc99A-transformed NM522 cells (i.e., pTrc99A without the HLFMO 3 cDNA insert) were prepared under the same conditions.
(§2) Human liver samples were obtained from the Department of Surgery (UCSF) and with a protocol from the Medical College of Wisconsin (S. Wrighton).
(§3) A typical incubation mixture (final volume 0.25 ml) contained hepatic microsomes (0.4 mg of protein) or bacterial lysate (2.3 mg of protein), NADP^+ (0.5 mM), glucose-6-phosphate (2.0 mM), glucose-6-phosphate dehydrogenase (1 IU), DETAPAC (0.8 mM) and potassium phosphate buffer (50 mM, pH 8.4). Reactions were initiated by the addition of substrate and terminated at designated times by the addition of three volumes of cold dichloromethane, mixed thoroughly and centrifuged to separate the aqueous and organic fractions. N- and S-oxide metabolic products in the resulting organic extracts were separated and quantified by HPLC. […] Thiobenzamide and thiobenzamide S-oxide were quantified with this same, HPLC system employing a mobile phase of methanol/acetonitrile/60% perchloric acid (20:80:0.016, v/v) which gave retention volumes of 2.7 and 7.0 ml, respectively. […] The major metabolites formed in the incubations were also subjected to mass spectral analysis after extraction of isolated HPLC fractions.
(§4) RPLC of the S-oxide diastereomers with a Chiracel OT chiral analytical column (25 cm×0.15 cm inner diameter, Daicel Chemical Co., New York, N.Y.) was accomplished with a Beckman system, Kratos UV detector (240 nm) and a Hewlett Packard Integrator. […] Quantification was accomplished by comparing integrated HPLC peak areas after taking into account the difference in the extinction coefficients at 240 nm. Likewise, the cis and trans S-oxide diasteromers of (+)- and (−)-2-methyl-1,-benzodithiole were separated with a Chiracel OT chiral analytical column.

Human Liver Microsomes = assay: in vitro
Procedure: as §1, §2, §3, §4

glu158-HFMO3-MBP = target: T2, glu158-HFMO3-MBP (Homo sapiens, UniProt P31513); assay: Substrate oxygenation by glu158-HFMO3-MBP fusion protein, HPLC; conditions: human, 15 min, 200 µM, pH 9
T2 sequence (P31513 2-532): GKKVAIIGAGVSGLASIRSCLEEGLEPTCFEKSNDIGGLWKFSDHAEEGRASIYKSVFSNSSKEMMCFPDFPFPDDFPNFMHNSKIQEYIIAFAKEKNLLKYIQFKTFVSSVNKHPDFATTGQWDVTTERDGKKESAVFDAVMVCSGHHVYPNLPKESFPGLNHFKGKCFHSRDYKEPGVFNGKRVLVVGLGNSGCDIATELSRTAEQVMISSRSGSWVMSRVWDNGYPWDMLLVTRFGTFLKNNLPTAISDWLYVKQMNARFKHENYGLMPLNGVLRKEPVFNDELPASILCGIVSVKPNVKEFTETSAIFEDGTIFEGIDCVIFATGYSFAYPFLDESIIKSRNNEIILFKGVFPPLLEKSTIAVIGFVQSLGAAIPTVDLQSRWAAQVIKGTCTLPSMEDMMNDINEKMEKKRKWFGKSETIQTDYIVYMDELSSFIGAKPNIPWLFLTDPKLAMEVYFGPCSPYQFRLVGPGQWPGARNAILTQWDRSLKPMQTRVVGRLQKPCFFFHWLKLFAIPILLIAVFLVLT
Procedure: (§5) For HFMO3-MBP assay, all HFMO3-MBP incubations were done as follows: Into a test tube was added DETAPAC (1.2 mM, final concentration for a 250 μl reaction) followed by the addition of 60 μl NADPH generating system (0.4 mM NADP, 0.4 mM glucose-6-phosphate, and 20 μl of a 50 units mI^−1 glucose-6-phosphate dehydrogenase). The tube was chilled on ice and buffer and enzyme were added as described below for individual experiments to give a volume of 240 μl. The incubation was initiated by the addition of 5-DTP (10 μl of 5 mM) and placed in a shaking water bath at 37° C. for 10 min (unless specified otherwise). The incubation was stopped by the addition of 1.0 ml of ice-cold CH2Cl2. Following the addition of sodium carbonate (approx. 20 mg), the culture tube was vortexed, centrifuged (2000×g, 10 min), and the organic layer was removed and transferred to a 1.5 ml microfuge tube. The organic solvent was evaporated under a stream of Ar(g) to dryness and the residue was taken up in MeOH (300 μl) for determination HPLC analysis.
(§6) Data was analyzed with a Hitachi D-2500 integrator.
(§7) MTS-oxygenation assays were carried out under the same buffer, temperature, time and volume conditions, as for the N-oxygenation assays. The reactions were initiated upon addition of 10 μl of a 5 mM solution of MTS. The reaction was quenched with the addition of 700 μl of 80% CH3CN:20% hexane then 20 mg NaCl(s) and vortexed vigorously for 10 sec. The quenched reactions were then centrifuged briefly to separate the phases. The organic layer, containing product and substrate, was removed and used directly for HPLC analysis.
(§8) All other instruments used were the same as above for the N-oxygenation reactions. Conditions for elution were 50% CH3CN/H2O (v:v) with a flow rate gradient as follows: 1.5 ml min^−1 from 0 to 4 min., 1.5-2.5 ml min^−1 from 4 to 5 min, 2.5 ml min^−1 from 5 to 15 min.
Trimethylamine is commonly ingested in foodstuffs or it is available in the diet of humans from choline and other sources. Trimethylamine (TMA) is exclusively eliminated in humans by metabolism to trimethylamine N-oxide (TMANO). […]

lys158-HFMO3-MBP = target: T3, lys158-HFMO3-MBP (Homo sapiens, UniProt P31513, E158K); assay: Substrate oxygenation by lys158-HFMO3-MBP fusion protein, HPLC; conditions: human, 15 min, 200 µM, pH 9
T3 sequence (P31513 2-532 E158K): T2 sequence (P31513 2-532) with E157K
Procedure: as §5, §6, §7, §8
Trimethylamine is commonly ingested in foodstuffs or it is available in the diet of humans from choline and other sources. Trimethylamine (TMA) is exclusively eliminated in humans by metabolism to trimethylamine N-oxide (TMANO). […] Thus, urinary TMANO formation provides a simple, reliable and direct assay of FMO3 activity in adult humans. Analysis of TMA to TMANO ratios provides a direct means of phenotyping adult humans for FMO3 activity. Phenotyping FMO3 activity in humans would provide a simple means of evaluating the relationship between the presence of FMO3 and various disease conditions. […]

4-bromophenyl-1,3-oxathiolane
pH of maximum S-oxygenase activity ([1]; in the presence of microsomes and expressed HLFMO 3): ~8.5

CC1Sc2ccccc2S1 [2-Methyl-1,3-Benzodithiole, 2-Methyl-1,3-benzodithiole]
S-oxide product cis (+)-(1R,2S), % Diastereomer (Human Liver Microsomes; human, 0.5 mM, pH 8.4): 28.2% | S-oxide product cis (+)-(1R,2S), amount formed (Human Liver Microsomes; human, 0.5 mM, pH 8.4): 176 ± 34 pmol/min/mg of protein | S-oxide product cis (-)-(1S,2R), % Diastereomer (Human Liver Microsomes; human, 0.5 mM, pH 8.4): 12.3% | S-oxide product cis (-)-(1S,2R), amount formed (Human Liver Microsomes; human, 0.5 mM, pH 8.4): 77 ± 27 pmol/min/mg of protein | S-oxide product trans (+)-(1R,2R), % Diastereomer (Human Liver Microsomes; human, 0.5 mM, pH 8.4): 59.5% | S-oxide product trans (+)-(1R,2R), amount formed (Human Liver Microsomes; human, 0.5 mM, pH 8.4): 372 ± 35 pmol/min/mg of protein | S-oxide product cis (+)-(1R,2S), % Diastereomer ([1]; human, 0.5 mM, pH 8.4): 48.6% | S-oxide product cis (+)-(1R,2S), amount formed ([1]; human, 0.5 mM, pH 8.4): 54 ± 22 pmol/min/mg of protein | S-oxide product cis (-)-(1S,2R), % Diastereomer ([1]; human, 0.5 mM, pH 8.4): 19.8% | S-oxide product cis (-)-(1S,2R), amount formed ([1]; human, 0.5 mM, pH 8.4): 22 ± 2 pmol/min/mg of protein | S-oxide product trans (+)-(1R,2R), % Diastereomer ([1]; human, 0.5 mM, pH 8.4): 31.5% | S-oxide product trans (+)-(1R,2R), amount formed ([1]; human, 0.5 mM, pH 8.4): 35 ± 27 pmol/min/mg of protein

CN(C)CCCN1c2ccccc2Sc2ccc(Cl)cc21 [Chlorpromazine, chlorpromazine]
N-oxide formation, Human Liver Microsomes (Human Liver Microsomes; human, 0.1 mM, pH 8.4): 58.9 ± 7.4 pmol/min/mg of protein | S-oxide formation, Human Liver Microsomes (Human Liver Microsomes; human, 0.1 mM, pH 8.4): 29.3 ± 3.7 pmol/min/mg of protein | substrate activity for human liver microsomes and expressed HLFMO 3, in words [1]: detectable | N-oxide formation, Expressed HFLMO ([1]; human, 0.1 mM, pH 8.4): 10.2 ± 1.2 pmol/min/mg of protein

CN(C)CCCCCCN1c2ccccc2Sc2ccc(C(F)(F)F)cc21 [Compound 6]
substrate activity for human liver microsomes and expressed HLFMO 3, in words ([1]; human liver microsomes and solubilized protein from E. coli transformed with pTrcHLFMO 3): better substrates | pH-optimum for tertiary amine N-oxygenation ([1]; microsomal protein and expressed HLFMO 3 gave virtually identical pH-rate profiles): approximately 10 | midpoint of the pH-rate profile of N-oxygenation ([1]; microsomes and expressed HLFMO 3): ~9.5

CSc1ccc(C)cc1 [MTS, methyl p-tolyl sulfide]
relative activity towards the sulfide, MTS vs. 5-DTP activity (glu158-HFMO3-MBP): 20 fold | relative activity towards the sulfide, MTS vs. 5-DTP activity (lys158-HFMO3-MBP): 4.9 fold

(+)-4-bromophenyl-1,3-oxathiolane
Km (Human Liver Microsomes): 50 µM | Vmax, Human Liver Microsomes (Human Liver Microsomes): 2.87 nmol/min/mg of protein | cis S-oxide formation rate, Human Liver Microsomes (Human Liver Microsomes): (5.3 ± 0.9) nmol/min/mg of protein | cis S-oxide, % of S-oxide product, Human Liver Microsomes (Human Liver Microsomes): 40.4% | trans S-oxide formation rate, Human Liver Microsomes (Human Liver Microsomes): 7.8 ± 1.7 nmol/min/mg of protein | trans S-oxide, % of S-oxide product, Human Liver Microsomes (Human Liver Microsomes): 59.5% | cis S-oxide, % of S-oxide product, Expressed HLFMO [1]: 38.5% | substrate activity for human liver microsomes and expressed HLFMO 3, in words [1]: excellent substrates | trans S-oxide formation rate, Expressed HLFMO [1]: 0.8 ± 0.2 nmol/min/mg of protein | trans S-oxide, % of S-oxide product, Expressed HLFMO [1]: 61.4% | Vmax, Expressed HLFMO [1]: 0.180 nmol/min/mg of protein | Km [1]: 142 µM

(−)-4-bromophenyl-1,3-oxathiolane [(-)-4-Bromophenyl-1,3-oxathiolane]
Km (Human Liver Microsomes): 166 µM | Vmax, Human Liver Microsomes (Human Liver Microsomes): 5.2 nmol/min/mg of protein | trans S-oxide formation rate, Human Liver Microsomes (Human Liver Microsomes): 2.4 ± 0.9 nmol/min/mg of protein | trans S-oxide, % of S-oxide product, Human Liver Microsomes (Human Liver Microsomes): 100% | substrate activity for human liver microsomes and expressed HLFMO 3, in words [1]: excellent substrates | trans S-oxide formation rate, Expressed HLFMO [1]: 0.7 ± 0.1 nmol/min/mg of protein | trans S-oxide, % of S-oxide product, Expressed HLFMO [1]: 100% | Vmax, Expressed HLFMO [1]: 2.94 nmol/min/mg of protein | Km [1]: 311 µM
